Assay results from ChEMBL document CHEMBL1909046, “DrugMatrix in vitro pharmacology data”.

Experiments:
[1] = DRUGMATRIX: Calcium Channel Type L, Benzothiazepine radioligand binding (ligand: [3H] Diltiazem); format: cell membranes, Rattus norvegicus, Wistar, Brain, Membrane; settings: Not Active = under 50% inhibition at 10 µM
Leukotriene C4 synthase = target: T1, Leukotriene C4 synthase (Cavia porcellus, UniProt A6XA80); format: tissue-based, Lung;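 also: enzyme inhibition assay of leukotriene C4 synthase, using LTA4 as the substrate; in other assays of this panel Not Active means under 50% inhibition at 10 µM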
T1 sequence (A6XA80 whole entry): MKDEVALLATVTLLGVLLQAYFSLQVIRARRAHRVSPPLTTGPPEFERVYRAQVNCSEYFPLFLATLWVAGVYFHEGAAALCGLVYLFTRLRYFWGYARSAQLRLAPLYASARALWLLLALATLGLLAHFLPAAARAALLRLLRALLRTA

[2] = target: T2, Receptor-type tyrosine-protein phosphatase C (Homo sapiens, UniProt P08575); set-up: species or system Escherichia coli;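 also: inhibition of CD45 enzyme activity measured using DiFMUP as substrate; in other assays of this panel Not Active means under 50% inhibition at 10 µM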
T2 sequence (P08575 whole entry): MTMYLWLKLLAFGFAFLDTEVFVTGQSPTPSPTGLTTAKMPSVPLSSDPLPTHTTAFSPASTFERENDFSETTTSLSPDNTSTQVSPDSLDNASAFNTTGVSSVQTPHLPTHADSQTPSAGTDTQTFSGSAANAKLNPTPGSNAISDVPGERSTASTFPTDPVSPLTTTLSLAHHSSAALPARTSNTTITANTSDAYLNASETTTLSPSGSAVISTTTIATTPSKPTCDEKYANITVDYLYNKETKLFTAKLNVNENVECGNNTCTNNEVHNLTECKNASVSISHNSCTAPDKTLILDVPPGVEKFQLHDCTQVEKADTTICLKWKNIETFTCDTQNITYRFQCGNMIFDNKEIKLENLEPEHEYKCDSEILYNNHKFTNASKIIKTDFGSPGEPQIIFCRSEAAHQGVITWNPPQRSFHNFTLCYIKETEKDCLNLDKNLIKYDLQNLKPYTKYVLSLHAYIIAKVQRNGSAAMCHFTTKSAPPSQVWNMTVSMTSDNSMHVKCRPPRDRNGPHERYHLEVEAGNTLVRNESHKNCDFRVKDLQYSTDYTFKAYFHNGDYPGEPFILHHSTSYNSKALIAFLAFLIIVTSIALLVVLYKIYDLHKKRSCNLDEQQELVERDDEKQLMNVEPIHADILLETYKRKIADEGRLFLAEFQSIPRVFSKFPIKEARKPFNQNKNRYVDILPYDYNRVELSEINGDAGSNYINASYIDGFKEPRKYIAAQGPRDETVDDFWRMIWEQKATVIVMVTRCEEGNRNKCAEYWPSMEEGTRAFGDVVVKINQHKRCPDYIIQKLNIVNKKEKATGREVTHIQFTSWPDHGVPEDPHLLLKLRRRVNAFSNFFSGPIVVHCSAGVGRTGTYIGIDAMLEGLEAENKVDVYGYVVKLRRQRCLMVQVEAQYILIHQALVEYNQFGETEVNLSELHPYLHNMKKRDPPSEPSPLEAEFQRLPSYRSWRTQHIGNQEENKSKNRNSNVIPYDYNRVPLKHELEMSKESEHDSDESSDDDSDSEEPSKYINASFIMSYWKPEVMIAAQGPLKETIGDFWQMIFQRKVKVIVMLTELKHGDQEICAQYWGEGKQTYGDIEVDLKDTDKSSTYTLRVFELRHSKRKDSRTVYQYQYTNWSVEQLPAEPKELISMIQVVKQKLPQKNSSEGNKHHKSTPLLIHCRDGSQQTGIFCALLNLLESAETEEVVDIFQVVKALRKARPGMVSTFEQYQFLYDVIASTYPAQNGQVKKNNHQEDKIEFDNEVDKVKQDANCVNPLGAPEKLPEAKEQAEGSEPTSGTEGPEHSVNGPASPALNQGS

[3] = DRUGMATRIX: Purinergic P2X radioligand binding (ligand: [3H] alpha, beta-Methylene-ATP); format: cell membranes, Oryctolagus cuniculus, New Zealand albino, Urinary bladder, Membrane; settings: Not Active = under 50% inhibition at 10 µM
Calcitonin receptor = target: T3, Calcitonin receptor (Homo sapiens, UniProt P30988); format: cell membranes, Membrane; settings: t47d; also: in other assays of this panel Not Active means under 50% inhibition at 10 µM
T3 sequence (P30988 whole entry): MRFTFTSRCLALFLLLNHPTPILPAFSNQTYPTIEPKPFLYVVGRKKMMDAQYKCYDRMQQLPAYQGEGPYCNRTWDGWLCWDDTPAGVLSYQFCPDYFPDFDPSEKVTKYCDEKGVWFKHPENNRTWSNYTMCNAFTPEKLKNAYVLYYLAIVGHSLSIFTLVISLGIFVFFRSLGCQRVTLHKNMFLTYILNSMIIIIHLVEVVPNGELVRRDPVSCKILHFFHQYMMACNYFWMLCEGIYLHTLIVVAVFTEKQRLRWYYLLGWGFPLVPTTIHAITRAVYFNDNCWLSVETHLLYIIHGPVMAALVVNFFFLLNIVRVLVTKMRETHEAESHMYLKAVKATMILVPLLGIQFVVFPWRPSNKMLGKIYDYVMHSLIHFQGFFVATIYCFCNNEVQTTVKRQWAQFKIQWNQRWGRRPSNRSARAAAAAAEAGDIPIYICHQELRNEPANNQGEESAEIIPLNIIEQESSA

[4] = DRUGMATRIX: ATPase, Na+/K+ enzyme inhibition (substrate: ATP); format: tissue-based, Sus scrofa, Heart; settings: Not Active = under 50% inhibition at 10 µM
[5] = target: C-C chemokine receptor type 5 (Homo sapiens, UniProt P51681); format: cell membranes, Membrane; settings: hek293; also: in other assays of this panel Not Active means under 50% inhibition at 10 µM
Cytochrome P450 2C9 = Cytochrome P450 2C9 (Homo sapiens, UniProt P11712); settings: bti-tn-5b1-4; also: in other assays of this panel Not Active means under 50% inhibition at 10 µM
Cytochrome P450 2C9, sequence (P11712 whole entry): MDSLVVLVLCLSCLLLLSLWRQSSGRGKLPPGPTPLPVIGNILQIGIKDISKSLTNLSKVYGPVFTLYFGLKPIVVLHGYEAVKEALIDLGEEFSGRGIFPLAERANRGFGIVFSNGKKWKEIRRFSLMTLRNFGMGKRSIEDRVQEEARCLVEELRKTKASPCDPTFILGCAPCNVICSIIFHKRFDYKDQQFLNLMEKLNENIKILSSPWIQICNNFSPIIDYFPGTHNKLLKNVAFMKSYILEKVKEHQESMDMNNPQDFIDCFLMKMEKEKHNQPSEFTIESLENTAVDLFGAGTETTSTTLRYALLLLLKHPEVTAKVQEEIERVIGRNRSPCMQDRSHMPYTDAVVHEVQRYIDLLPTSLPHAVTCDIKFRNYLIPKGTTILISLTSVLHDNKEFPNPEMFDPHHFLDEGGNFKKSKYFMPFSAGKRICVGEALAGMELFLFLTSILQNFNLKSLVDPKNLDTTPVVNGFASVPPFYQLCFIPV

C-C chemokine receptor type 5, sequence (P51681 whole entry): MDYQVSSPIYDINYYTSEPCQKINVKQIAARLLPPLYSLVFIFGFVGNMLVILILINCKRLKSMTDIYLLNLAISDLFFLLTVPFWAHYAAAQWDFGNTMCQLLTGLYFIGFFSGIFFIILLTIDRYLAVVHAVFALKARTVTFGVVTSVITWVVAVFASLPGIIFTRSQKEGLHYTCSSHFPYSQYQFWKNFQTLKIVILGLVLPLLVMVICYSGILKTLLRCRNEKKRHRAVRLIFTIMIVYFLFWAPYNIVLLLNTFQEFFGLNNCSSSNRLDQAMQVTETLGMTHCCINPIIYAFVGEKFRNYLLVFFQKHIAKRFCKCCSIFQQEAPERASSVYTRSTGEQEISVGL

| Structure (SMILES) | IC50 [1] | Ki [1] | IC50 (Leukotriene C4 synthase) | IC50 [2] | IC50 [3] | Ki [3] | IC50 (Calcitonin receptor) | IC50 [4] | Ki [4] | IC50 [5] | IC50 (Cytochrome P450 2C9) | Ki (Cytochrome P450 2C9) | IC50 ([1]; read-out: IC50) [nM] | Ki ([1]; read-out: Ki) [nM] |
| --- | --- | --- | --- | --- | --- | --- | --- | --- | --- | --- | --- | --- | --- | --- |
| CC(C)[C@H]1C(=O)N2CCC[C@H]2[C@]2(O)O[C@](NC(=O)[C@@H]3C=C4c5cccc6[nH]cc(c56)C[C@H]4N(C)C3)(C(C)C)C(=O)N12 [ERGOCORNINE] | Not Active | Not Active | Not Active | Not Active | Not Active | Not Active | Not Active | Not Active | Not Active | Not Active | Not Active | Not Active |  |  |
| CCC(C)n1ncn(-c2ccc(N3CCN(c4ccc(OCC5COC(Cn6cncn6)(c6ccc(Cl)cc6Cl)O5)cc4)CC3)cc2)c1=O (centres undefined) [ITRACONAZOLE] | Not Active | Not Active | Not Active | Not Active | Not Active | Not Active | Not Active | Not Active | Not Active | Not Active | Not Active | Not Active |  |  |
| Cc1onc(O)c1CC(N)C(=O)O (racemic) [(R,S)-AMPA] | Not Active | Not Active | Not Active | Not Active | Not Active | Not Active | Not Active | Not Active | Not Active | Not Active | Not Active | Not Active |  |  |
| CC1=C2C(=CO[C@H](C)[C@H]2C)C(O)=C(C(=O)O)C1=O [CITRININ] | Not Active | Not Active | Not Active | Not Active | Not Active | Not Active | Not Active | Not Active | Not Active | Not Active | Not Active | Not Active |  |  |
| Nc1nc2c(ncn2COCCO)c(=O)[nH]1 [ACYCLOVIR] | Not Active | Not Active | Not Active | Not Active | Not Active | Not Active | Not Active | Not Active | Not Active | Not Active | Not Active | Not Active |  |  |
| CCOC(=O)C1=C(COCCN)NC(C)=C(C(=O)OC)C1c1ccccc1Cl (centres undefined) [AMLODIPINE] |  |  | Not Active | Not Active | Not Active | Not Active | Not Active | Not Active | Not Active | Not Active | Not Active | Not Active | 101 | 90 |
| O=C1CC[C@@H](N2C(=O)c3ccccc3C2=O)C(=O)N1 | Not Active | Not Active | Not Active | Not Active | Not Active | Not Active | Not Active | Not Active | Not Active | Not Active | Not Active | Not Active |  |  |
| Cc1ccc(N(CC2=NCCN2)c2cccc(O)c2)cc1 [PHENTOLAMINE] | Not Active | Not Active | Not Active | Not Active | Not Active | Not Active | Not Active | Not Active | Not Active | Not Active | Not Active | Not Active |  |  |
| CC(C)C(Br)C(=O)NC(N)=O (centres undefined) [BROMISOVALUM] | Not Active | Not Active | Not Active | Not Active | Not Active | Not Active | Not Active | Not Active | Not Active | Not Active | Not Active | Not Active |  |  |
| Cc1ccccc1N1C(=O)c2cc(S(N)(=O)=O)c(Cl)cc2NC1C (centres undefined) [METOLAZONE] | Not Active | Not Active | Not Active | Not Active | Not Active | Not Active | Not Active | Not Active | Not Active | Not Active | Not Active | Not Active |  |  |
| C1CCC(C(CC2CCCCN2)C2CCCCC2)CC1 (centres undefined) [PERHEXILINE] |  |  | Not Active | Not Active | Not Active | Not Active | Not Active | Not Active | Not Active | Not Active | Not Active | Not Active | 1060 | 939 |
| CC(C)CN(C[C@@H](O)[C@H](Cc1ccccc1)NC(=O)O[C@H]1CCOC1)S(=O)(=O)c1ccc(N)cc1 | Not Active | Not Active | Not Active | Not Active | Not Active | Not Active | Not Active | Not Active | Not Active | Not Active | Not Active | Not Active |  |  |
| Cc1ccc2cc3c(ccc4ccccc43)c3c2c1CC3 [3-METHYLCHOLANTHRENE] | Not Active | Not Active | Not Active | Not Active | Not Active | Not Active | Not Active | Not Active | Not Active | Not Active | Not Active | Not Active |  |  |
| Nc1nc2c(ncn2CCC(CO)CO)c(=O)[nH]1 [PENCICLOVIR] | Not Active | Not Active | Not Active | Not Active | Not Active | Not Active | Not Active | Not Active | Not Active | Not Active | Not Active | Not Active |  |  |
| CN(C)C(=O)Oc1cc(OC(=O)N(C)C)cc(C(O)CNC(C)(C)C)c1 (centres undefined) [BAMBUTEROL] | Not Active | Not Active | Not Active | Not Active | Not Active | Not Active | Not Active | Not Active | Not Active | Not Active | Not Active | Not Active |  |  |
| Nc1nc(N)nc(-c2cc(Cl)ccc2Cl)n1.O=C(O)/C=C\C(=O)O [IRSOGLADINE MALEATE] | Not Active | Not Active | Not Active | Not Active | Not Active | Not Active | Not Active | Not Active | Not Active | Not Active | Not Active | Not Active |  |  |
| Cc1ccc(-c2cc(C(F)(F)F)nn2-c2ccc(S(N)(=O)=O)cc2)cc1 [CELECOXIB] | Not Active | Not Active | Not Active | Not Active | Not Active | Not Active | Not Active | Not Active | Not Active | Not Active | Not Active | Not Active |  |  |
